{"source": "patent US11052154B2", "about": "“Ras protein degradation inducing molecule and pharmaceutical composition” (Tokyo University of Science Foundation, priority 2016, dated 2021)", "key": {"[1]": {"molecular_target": "T1, SOS1 protein (Homo sapiens, UniProt Q07889)", "T1 construct": "endogenous in cells; host or cells: HeLa", "T1 sequence (Q07889 1-1333)": "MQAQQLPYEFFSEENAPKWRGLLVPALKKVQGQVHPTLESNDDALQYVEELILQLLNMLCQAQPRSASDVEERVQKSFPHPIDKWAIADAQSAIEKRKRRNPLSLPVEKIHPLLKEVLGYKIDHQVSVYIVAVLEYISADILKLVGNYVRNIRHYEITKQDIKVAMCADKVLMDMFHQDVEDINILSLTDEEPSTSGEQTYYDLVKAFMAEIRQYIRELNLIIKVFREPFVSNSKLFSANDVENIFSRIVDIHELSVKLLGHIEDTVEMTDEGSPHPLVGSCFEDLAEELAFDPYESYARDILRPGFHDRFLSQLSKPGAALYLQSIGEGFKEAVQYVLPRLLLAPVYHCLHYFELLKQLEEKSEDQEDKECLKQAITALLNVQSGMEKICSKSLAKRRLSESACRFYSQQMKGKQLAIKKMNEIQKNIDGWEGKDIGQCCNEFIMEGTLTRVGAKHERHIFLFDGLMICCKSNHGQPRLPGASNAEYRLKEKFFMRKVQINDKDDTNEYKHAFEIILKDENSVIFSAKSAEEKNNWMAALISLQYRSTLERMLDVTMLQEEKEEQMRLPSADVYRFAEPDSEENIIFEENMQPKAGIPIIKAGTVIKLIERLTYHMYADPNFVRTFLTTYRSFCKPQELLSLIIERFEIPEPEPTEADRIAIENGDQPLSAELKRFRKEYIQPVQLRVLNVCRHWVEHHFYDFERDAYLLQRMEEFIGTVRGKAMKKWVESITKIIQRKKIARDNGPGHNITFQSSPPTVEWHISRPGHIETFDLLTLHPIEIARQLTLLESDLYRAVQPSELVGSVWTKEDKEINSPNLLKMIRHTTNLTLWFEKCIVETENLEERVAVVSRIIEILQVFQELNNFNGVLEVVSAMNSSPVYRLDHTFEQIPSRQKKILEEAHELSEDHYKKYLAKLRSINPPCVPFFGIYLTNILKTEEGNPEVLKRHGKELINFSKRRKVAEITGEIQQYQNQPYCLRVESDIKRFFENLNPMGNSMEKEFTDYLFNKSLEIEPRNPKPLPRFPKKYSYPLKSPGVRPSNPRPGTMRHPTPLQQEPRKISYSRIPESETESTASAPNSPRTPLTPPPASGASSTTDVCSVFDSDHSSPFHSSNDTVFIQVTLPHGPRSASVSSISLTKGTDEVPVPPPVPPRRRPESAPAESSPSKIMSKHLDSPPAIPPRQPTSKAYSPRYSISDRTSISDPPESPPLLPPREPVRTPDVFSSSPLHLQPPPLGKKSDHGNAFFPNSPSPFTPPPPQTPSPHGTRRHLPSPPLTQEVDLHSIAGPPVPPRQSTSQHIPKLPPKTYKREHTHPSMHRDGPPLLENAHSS", "experiment": "Amount of SOS1 protein in HeLa cells, Western blot analysis", "type": "cell-based", "details": "48 hours after addition, vs control (DMSO), FIG. 5"}, "[2]": {"test_system": "SW1990 cells", "experiment": "Anti-tumor effect in mice subcutaneously implanted with human pancreatic cancer cells (SW1990 cells)", "type": "in vivo, mouse", "details": "BALB/c nu/nu mice, SW1990 subcutaneous, oral 80 mg/kg once every 3 days, 7 doses, vs Vehicle; FIG. 9A", "procedure": "In Example 10, TUS-007 was administered to mice subcutaneously implanted with human pancreatic cancer cells (SW1990 cells), and an anti-tumor effect was evaluated.\nTo the subcutis of T-cell deficient mice (BALB/cAJcl-nu/nu, 4 weeks old, female) (CLEA Japan, Inc.), 0.1 mL of cell suspension in which SW1990 cells were suspended in PBS so as to be 1×10^7 cells/mL was implanted using a 26-gauge injection needle (TERUMO CORPORATION).\nImmediately before administration, TUS-007 was dissolved in DMSO, 0.5 mass % carboxymethyl cellulose (Code No. 039-01335, Wako Pure Chemical Industries, Ltd.) solution was added so that the concentration of DMSO became 2.5 vol %, followed by pulverization by ultrasonic treatment to prepare a suspension of TUS-007. When the tumors of mice with subcutaneously implanted SW1990 cells grew to a size of approximately 100 mm^3, the prepared TUS-007 suspension was orally administered by gavage with a gastric tube (Code No. 5202K, Fuchigami Kikai) at a dose of 80 mg/kg body weight once every 3 days for a total of 7 doses (n=6 to 9). As a control (Vehicle), 0.5 mass % carboxymethyl cellulose solution containing 2.5 vol % DMSO was administered in the same manner.\nThe tumor volume (mm^3) was calculated by measuring the tumor size using a caliper, and using the formula (minor axis diameter)^2×major axis diameter/2."}, "[3]": {"molecular_target": "T2, G12D mutant K-Ras protein (Homo sapiens, UniProt P01116, G12D)", "T2 construct": "expressed in transfected cells; host or cells: HeLa", "T2 sequence (P01116 1-188 isoform P01116-2 G12D)": "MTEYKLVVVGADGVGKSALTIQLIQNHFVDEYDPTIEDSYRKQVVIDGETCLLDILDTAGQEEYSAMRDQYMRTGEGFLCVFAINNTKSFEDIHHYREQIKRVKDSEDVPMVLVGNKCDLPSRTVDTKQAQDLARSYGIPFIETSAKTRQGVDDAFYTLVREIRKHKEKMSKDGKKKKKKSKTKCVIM", "experiment": "Degradation (knockdown) of G12D mutant K-Ras protein forcibly expressed in HeLa cells, FACS analysis", "type": "cell-based", "quoted_text": "HeLa cells into which the plasmid had been introduced were seeded in a 24-well plate at a cell density of 4×10^4 cells/well, and then cultured under conditions of 37° C. and 5 vol % CO2 for 40 hours.\nDMSO was used as a control."}}}
{"smiles": "CCC(C)[C@H](NC(=O)CCCCCCNC(=O)[C@H](CC(C)C)NC(=O)CNC(=O)c1cc(Cl)ccc1Cl)C(=O)Nc1ccc2[nH]c(Cc3c[nH]c4ccccc34)nc2c1", "note": "(stereo in doubt) [TUS-007]", "values": [{"measurement": "amount of the SOS1 protein (Western blot)", "setting": "[1]", "result": "the amount of the SOS1 protein was not reduced"}, {"measurement": "increase of the tumor volume", "setting": "[2]", "result": "the increase of the tumor volume was significantly suppressed (p=0.004)"}, {"measurement": "degradation of the G12D mutant K-Ras protein when both TUS-007 and MLN2238 were added", "setting": "[3]; HeLa cells, MLN2238 co-added, compared with TUS-007 alone, FIG. 3", "result": "G12D mutant and G12V mutant K-Ras protein degradation was inhibited"}, {"measurement": "degradation (knockdown) of the G12D mutant K-Ras protein (shift of GFP/DsRed ratio graph)", "setting": "[3]; HeLa cells, vs control (DMSO), FIG. 3", "result": "degradation of the G12D mutant and the G12V mutant K-Ras protein was induced"}, {"measurement": "comparison of degradation induction among wild-type, G12D mutant and G12V mutant K-Ras protein", "setting": "[3]; from the results of FIGS. 1 and 3", "result": "excellent in inducing the degradation of the G12D mutant K-Ras protein"}]}
